Here are results for seven compounds from PubChem BioAssay (NCI).

Some test systems named below: 786-0 renal; CCRF-CEM leukemia; HCC-2998 colon; HCT-15 colon; HL-60(TB) leukemia; HT29 colon; MDA-MB-435; NCI-H226 lung; NCI-H522 lung; OVCAR-3 ovarian; OVCAR-5 ovarian; SK-MEL-2 melanoma; SK-MEL-28 melanoma; SN12C renal; SNB-75 CNS; SR leukemia; SW-620 colon; U251 CNS; UACC-62 melanoma; LOX IMVI melanoma.
Assay in all cases: NCI tumour cell line growth inhibition, 48 h

The structures appear in SMILES notation.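 These data come from cells grown in 96-well plates and exposed to compound for 48 hours at five concentrations. TGI denotes the concentration required for complete inhibition of growth.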

With `Cc1sc(N)c(S(=O)(=O)c2ccccc2)c1C`, the TGI in the experiment on 786-0 renal, with CCRF-CEM leukemia, in the experiment on HCC-2998 colon, in the experiment on HCT-15 colon, in the experiment on HL-60(TB) leukemia and in the experiment with HT29 colon was over 100 µM each time. For the same compound, the TGI in the experiment on MDA-MB-435, with NCI-H226 lung, in the experiment with NCI-H522 lung, in the experiment with OVCAR-3 ovarian, with OVCAR-5 ovarian and in the experiment on SK-MEL-2 melanoma was over 100 µM in each case. Also, the TGI in the experiment with SK-MEL-28 melanoma, in the experiment on SN12C renal, with SNB-75 CNS, with SR leukemia, in the experiment with SW-620 colon and with U251 CNS was over 100 µM each time. Also, the TGI in the experiment with UACC-62 melanoma was over 100 µM.
On to `O=S(=O)(NC1OCCCC1I)c1ccccc1` (stereo not drawn), for which the TGI in the experiment with 786-0 renal, in the experiment on CCRF-CEM leukemia, in the experiment with HCC-2998 colon, in the experiment with HCT-15 colon, in the experiment with HT29 colon and in the experiment with LOX IMVI melanoma was over 100 µM each time. Moreover, the TGI in the experiment with MDA-MB-435, in the experiment on NCI-H226 lung, in the experiment with NCI-H522 lung, with OVCAR-3 ovarian, in the experiment with OVCAR-5 ovarian and in the experiment with SK-MEL-2 melanoma was over 100 µM in each case. Further, the TGI in the experiment on SK-MEL-28 melanoma, with SN12C renal, with SNB-75 CNS, with SR leukemia, in the experiment on SW-620 colon and in the experiment on U251 CNS was over 100 µM throughout. Moreover, in the experiment with UACC-62 melanoma, the TGI was over 100 µM.
As for `COc1cccc(NC(=O)CC(=O)N2N=C(C)C(N=Nc3ccc(S(=O)(=O)CCOS(=O)(=O)O)cc3)C2=O)c1` (stereo not drawn), the TGI in the experiment on 786-0 renal is 9.07 µM; in the experiment on CCRF-CEM leukemia, over 100 µM; in the experiment with HCC-2998 colon, 29.1 µM; in the experiment with HCT-15 colon, 12.1 µM; in the experiment on HL-60(TB) leukemia it was 6.85 µM; with HT29 colon, 13.8 µM. In addition, the TGI in the experiment on LOX IMVI melanoma worked out at 4.25 µM; in the experiment with MDA-MB-435, 10.4 µM; with NCI-H226 lung, 27.1 µM; in the experiment on NCI-H522 lung, 2.48 µM; in the experiment on OVCAR-3 ovarian it was 17 µM; in the experiment with OVCAR-5 ovarian it was 44.9 µM. Besides, the TGI with SK-MEL-2 melanoma was 6.23 µM; in the experiment on SK-MEL-28 melanoma, 16.9 µM; with SN12C renal, 20.1 µM; with SNB-75 CNS, 15.5 µM; with SR leukemia it was over 100 µM; with SW-620 colon, 12.7 µM. In the experiment on U251 CNS, this compound registered a TGI of 17.9 µM.
On to `CC(C)c1cccc(C(=O)NCCN(C)C)c1[N+](=O)[O-]`, for which the TGI in the experiment with 786-0 renal, in the experiment with CCRF-CEM leukemia, in the experiment with HCC-2998 colon, with HCT-15 colon, in the experiment on HL-60(TB) leukemia and in the experiment on HT29 colon was over 100 µM throughout. Moreover, the TGI with MDA-MB-435, in the experiment on NCI-H226 lung, in the experiment on NCI-H522 lung, with OVCAR-3 ovarian, in the experiment with OVCAR-5 ovarian and with SK-MEL-2 melanoma was over 100 µM each time. Also, the TGI in the experiment with SK-MEL-28 melanoma, in the experiment on SN12C renal, with SNB-75 CNS, in the experiment on SR leukemia, with SW-620 colon and in the experiment on U251 CNS was over 100 µM throughout. The same compound returned a TGI in the experiment on UACC-62 melanoma of over 100 µM.
Consider `COc1ccc(CCNC(=O)CCc2ccccc2CO)cc1OC`, for which the TGI with 786-0 renal, in the experiment on CCRF-CEM leukemia, in the experiment on HCC-2998 colon, in the experiment with HCT-15 colon, in the experiment with HL-60(TB) leukemia and with HT29 colon was over 100 µM in each case. In addition, the TGI in the experiment on MDA-MB-435, with NCI-H226 lung, in the experiment on NCI-H522 lung, in the experiment on OVCAR-3 ovarian, in the experiment with OVCAR-5 ovarian and in the experiment on SK-MEL-2 melanoma was over 100 µM throughout. Moreover, the TGI in the experiment with SK-MEL-28 melanoma, in the experiment with SN12C renal, in the experiment with SNB-75 CNS, in the experiment on SR leukemia, in the experiment with SW-620 colon and with U251 CNS was over 100 µM in each case. The TGI with UACC-62 melanoma was over 100 µM.
Turning to `CN(C)CCc1ccnc2nc(-c3ccc4ccccc4c3)cn12`, the TGI is 63.2 µM in the experiment with 786-0 renal; over 100 µM in the experiment with CCRF-CEM leukemia; 37.2 µM with HCC-2998 colon; over 100 µM with HCT-15 colon; over 100 µM with HL-60(TB) leukemia; 38.9 µM in the experiment with HT29 colon. For the same compound, the TGI in the experiment with LOX IMVI melanoma was 65 µM; in the experiment on MDA-MB-435, over 100 µM; in the experiment on NCI-H226 lung, over 100 µM; in the experiment with NCI-H522 lung, 24.8 µM; in the experiment on OVCAR-3 ovarian, 72 µM; in the experiment on OVCAR-5 ovarian, over 100 µM. Also, the TGI in the experiment with SK-MEL-2 melanoma was over 100 µM; in the experiment with SK-MEL-28 melanoma, over 100 µM; with SN12C renal, 75.9 µM; with SR leukemia it was over 100 µM; with SW-620 colon, 47.7 µM; with U251 CNS, over 100 µM. In the experiment with UACC-62 melanoma, this compound had a TGI of over 100 µM.
For the compound `CN(/N=C\c1ccc2ccccc2c1)C1=NCCN1`, the TGI in the experiment with 786-0 renal is 47.4 µM; in the experiment on CCRF-CEM leukemia, 65 µM; in the experiment with HCC-2998 colon, 29.7 µM; with HCT-15 colon it was over 100 µM; in the experiment with HL-60(TB) leukemia it was 33 µM; with HT29 colon, 31.3 µM. Further, the TGI in the experiment on LOX IMVI melanoma was 25.4 µM; in the experiment with MDA-MB-435, 30.1 µM; in the experiment with NCI-H226 lung, 37.8 µM; with NCI-H522 lung, 32 µM; with OVCAR-3 ovarian, 99.6 µM; with OVCAR-5 ovarian it was over 100 µM. In addition, the TGI in the experiment with SK-MEL-2 melanoma worked out at 30.9 µM; in the experiment on SK-MEL-28 melanoma, 28.4 µM; with SNB-75 CNS it was 41.5 µM; in the experiment on SR leukemia, 56.6 µM; in the experiment with SW-620 colon, 41.7 µM; in the experiment on U251 CNS, 56.5 µM. This compound came in with a TGI with UACC-62 melanoma of 38.8 µM.
